# Tests used:
# Details in all cases: 11-point 3-fold dilution, qPCR readout
# FGFR1 = target: T1, FGFR1 (Homo sapiens, UniProt P11362); assay: Kinase binding assay (Kd), FGFR1
# T1 construct: made in house; host or cells: E. coli host derived from BL21, infected with T7 phage
# Description: (§1) Kinase-tagged T7 phage strains were prepared in an E. coli host derived from the BL21 strain. E. coli were grown to log-phase and infected with T7 phage and incubated with shaking at 32° C. until lysis. The lysates were centrifuged and filtered to remove cell debris. Streptavidin-coated magnetic beads were treated with biotinylated small molecule ligands for 30 minutes at room temperature to generate affinity resins for kinase assays. The liganded beads were blocked with excess biotin and washed with blocking buffer SeaBlock (Pierce), 1% BSA, 0.05% Tween 20, 1 mM DTT to remove unbound ligand and to reduce non-specific binding. Binding reactions were assembled by combining kinases, liganded affinity beads, and test compounds in 1× binding buffer (20% SeaBlock, 0.17×PBS, 0.05% Tween 20, 6 mM DTT).
# (§2) Test compounds were prepared as 111X stocks in 100% DMSO. Kds were determined using an 11-point 3-fold compound dilution series with three DMSO control points. All compounds for Kd measurements are distributed by acoustic transfer (non-contact dispensing) in 100% DMSO. The compounds were then diluted directly into the assays such that the final concentration of DMSO was 0.9%. All reactions performed in polypropylene 384-well plate. Each was a final volume of 0.02 ml. The assay plates were incubated at room temperature with shaking for 1 hour and the affinity beads were washed with wash buffer (lx PBS, 0.05% Tween 20). The beads were then re-suspended in elution buffer (lx PBS, 0.05% Tween 20, 0.5 μM non-biotinylated affinity ligand) and incubated at room temperature with shaking for 30 minutes. The kinase concentration in the eluates was measured by qPCR.
# (§3) Binding constants were calculated with a standard dose-response curve using the Hill equation: […]
# (§4) The Hill Slope was set to −1. Curves were fitted using a non-linear least square fit with the Levenberg-Marquardt algorithm.
# FGFR2 = target: T2, FGFR2 (Homo sapiens, UniProt P21802); assay: Kinase binding assay (Kd), FGFR2
# T2 construct: made in house; host or cells: E. coli host derived from BL21, infected with T7 phage
# T2 sequence (P21802 22-821): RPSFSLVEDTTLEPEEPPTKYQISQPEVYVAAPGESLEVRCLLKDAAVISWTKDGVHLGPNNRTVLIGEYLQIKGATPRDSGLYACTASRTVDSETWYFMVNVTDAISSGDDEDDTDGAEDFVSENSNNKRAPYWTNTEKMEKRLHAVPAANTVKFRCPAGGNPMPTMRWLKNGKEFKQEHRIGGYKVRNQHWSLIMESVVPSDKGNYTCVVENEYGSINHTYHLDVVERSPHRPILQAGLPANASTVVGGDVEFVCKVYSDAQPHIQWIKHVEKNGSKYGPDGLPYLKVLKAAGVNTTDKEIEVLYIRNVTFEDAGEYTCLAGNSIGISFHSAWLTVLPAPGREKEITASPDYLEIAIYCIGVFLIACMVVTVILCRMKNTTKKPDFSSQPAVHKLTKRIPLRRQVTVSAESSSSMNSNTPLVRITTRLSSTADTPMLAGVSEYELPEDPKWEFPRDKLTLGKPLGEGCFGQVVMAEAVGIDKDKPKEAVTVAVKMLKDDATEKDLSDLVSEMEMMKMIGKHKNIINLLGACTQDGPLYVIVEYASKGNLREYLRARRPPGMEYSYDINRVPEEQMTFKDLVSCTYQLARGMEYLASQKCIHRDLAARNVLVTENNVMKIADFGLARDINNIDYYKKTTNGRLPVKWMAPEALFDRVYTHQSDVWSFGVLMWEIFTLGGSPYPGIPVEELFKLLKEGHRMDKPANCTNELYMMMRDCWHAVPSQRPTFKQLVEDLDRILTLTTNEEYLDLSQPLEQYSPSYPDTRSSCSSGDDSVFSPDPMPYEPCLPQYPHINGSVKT
# Description: as §1, §2, §3, §4
# FGFR3 = target: T3, FGFR3 (Homo sapiens, UniProt P22607); assay: Kinase binding assay (Kd), FGFR3
# T3 construct: made in house; host or cells: E. coli host derived from BL21, infected with T7 phage
# T3 sequence (P22607 23-806): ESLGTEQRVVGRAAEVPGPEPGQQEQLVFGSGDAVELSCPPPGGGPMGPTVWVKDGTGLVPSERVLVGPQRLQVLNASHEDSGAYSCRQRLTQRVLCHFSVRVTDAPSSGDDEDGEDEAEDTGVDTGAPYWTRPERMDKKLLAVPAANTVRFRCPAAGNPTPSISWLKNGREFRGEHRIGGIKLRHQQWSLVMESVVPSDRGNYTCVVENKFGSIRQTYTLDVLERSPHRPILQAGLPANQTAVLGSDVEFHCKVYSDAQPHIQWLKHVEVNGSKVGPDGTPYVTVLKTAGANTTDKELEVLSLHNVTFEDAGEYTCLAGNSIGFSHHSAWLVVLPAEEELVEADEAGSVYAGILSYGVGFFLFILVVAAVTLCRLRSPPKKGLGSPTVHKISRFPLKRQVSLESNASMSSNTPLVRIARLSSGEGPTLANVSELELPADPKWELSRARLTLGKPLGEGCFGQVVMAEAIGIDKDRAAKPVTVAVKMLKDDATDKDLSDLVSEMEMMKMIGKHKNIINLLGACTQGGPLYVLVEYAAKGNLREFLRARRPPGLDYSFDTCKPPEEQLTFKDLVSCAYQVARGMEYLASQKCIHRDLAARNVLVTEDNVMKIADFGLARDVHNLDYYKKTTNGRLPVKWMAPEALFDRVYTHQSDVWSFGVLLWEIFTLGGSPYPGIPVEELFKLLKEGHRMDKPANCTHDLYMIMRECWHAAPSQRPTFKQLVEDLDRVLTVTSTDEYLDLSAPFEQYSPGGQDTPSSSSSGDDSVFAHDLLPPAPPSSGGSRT
# Description: as §1, §2, §3, §4
# FGFR3 (V555M) = target: T4, FGFR3 (V555M) (Homo sapiens, UniProt P22607, V555M); assay: Kinase binding assay (Kd), FGFR3 (V555M)
# T4 construct: made in house; host or cells: E. coli host derived from BL21, infected with T7 phage
# T4 sequence (P22607 23-806 V555M): as the sequence (P22607 23-806) above, with V533M counted along it
# Description: as §1, §2, §3, §4
# FGFR4 = target: T5, FGFR4 (Homo sapiens, UniProt P22455); assay: Kinase binding assay (Kd), FGFR4
# T5 construct: made in house; host or cells: E. coli host derived from BL21, infected with T7 phage
# T5 sequence (P22455 22-802): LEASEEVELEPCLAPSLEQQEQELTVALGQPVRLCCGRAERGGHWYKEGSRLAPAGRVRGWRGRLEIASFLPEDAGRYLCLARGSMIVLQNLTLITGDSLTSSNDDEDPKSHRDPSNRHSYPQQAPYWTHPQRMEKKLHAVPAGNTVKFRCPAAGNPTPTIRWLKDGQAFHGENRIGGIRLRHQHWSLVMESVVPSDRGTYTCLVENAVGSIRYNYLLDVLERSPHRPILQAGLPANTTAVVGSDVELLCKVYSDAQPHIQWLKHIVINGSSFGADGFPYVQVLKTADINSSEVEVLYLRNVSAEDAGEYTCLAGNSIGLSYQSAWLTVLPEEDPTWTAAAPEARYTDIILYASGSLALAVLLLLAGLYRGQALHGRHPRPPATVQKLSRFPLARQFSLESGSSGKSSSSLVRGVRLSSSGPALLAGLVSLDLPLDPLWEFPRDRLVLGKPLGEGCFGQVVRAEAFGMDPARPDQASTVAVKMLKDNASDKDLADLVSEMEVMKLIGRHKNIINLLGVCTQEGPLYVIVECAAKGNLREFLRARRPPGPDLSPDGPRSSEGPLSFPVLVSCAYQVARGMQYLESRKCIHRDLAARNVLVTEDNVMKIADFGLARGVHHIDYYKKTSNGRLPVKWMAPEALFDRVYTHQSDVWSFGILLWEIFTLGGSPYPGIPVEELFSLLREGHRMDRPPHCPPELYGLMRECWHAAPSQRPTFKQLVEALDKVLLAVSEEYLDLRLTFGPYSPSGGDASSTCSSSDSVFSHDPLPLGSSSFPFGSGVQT
# Description: as §1, §2, §3, §4
# T1 sequence (P11362 22-822): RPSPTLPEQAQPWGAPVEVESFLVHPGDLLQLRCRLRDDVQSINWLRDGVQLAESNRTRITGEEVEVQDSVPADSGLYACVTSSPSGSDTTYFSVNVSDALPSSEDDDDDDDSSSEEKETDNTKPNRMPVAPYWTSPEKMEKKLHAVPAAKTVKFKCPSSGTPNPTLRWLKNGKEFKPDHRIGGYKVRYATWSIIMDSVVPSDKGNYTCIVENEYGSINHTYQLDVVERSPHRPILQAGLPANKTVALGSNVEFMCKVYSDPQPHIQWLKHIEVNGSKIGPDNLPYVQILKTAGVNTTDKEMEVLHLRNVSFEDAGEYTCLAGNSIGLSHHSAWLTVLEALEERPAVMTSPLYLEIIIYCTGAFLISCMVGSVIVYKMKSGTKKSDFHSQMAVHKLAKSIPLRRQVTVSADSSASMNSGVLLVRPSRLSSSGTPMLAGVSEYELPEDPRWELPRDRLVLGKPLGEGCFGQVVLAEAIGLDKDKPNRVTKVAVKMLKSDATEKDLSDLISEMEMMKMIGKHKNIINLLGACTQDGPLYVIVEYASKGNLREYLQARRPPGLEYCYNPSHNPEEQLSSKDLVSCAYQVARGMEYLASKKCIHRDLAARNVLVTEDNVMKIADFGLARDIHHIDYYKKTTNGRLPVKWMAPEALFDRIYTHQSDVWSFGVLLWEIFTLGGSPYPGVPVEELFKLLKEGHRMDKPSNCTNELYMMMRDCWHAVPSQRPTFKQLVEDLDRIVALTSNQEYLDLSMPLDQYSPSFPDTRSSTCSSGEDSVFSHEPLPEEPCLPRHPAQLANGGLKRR
SMILES,Kd (FGFR1) [nM],Kd (FGFR2) [nM],Kd (FGFR3) [nM],Kd (FGFR3 (V555M)) [nM],Kd (FGFR4) [nM]
"C=CC(=O)Nc1ccc2c(ccn2-c2nc(Nc3ccc(S(C)(=N)=O)cc3OC)ncc2Cl)c1 (single isomer, unassigned) [Example 88, N-[1-[5-Chloro-2-[2-methoxy-4-(methylsulfonimidoyl)-anilino]-pyrimidin-4-yl]indol-5-yl]prop-2-enamide]",20000,26000,8800,840,–
"COc1cc(N=S(C)(C)=O)ccc1Nc1ncc(Cl)c(-c2c[nH]c3ccccc23)n1 [Example 1, 5-chloro-N-[4-[[dimethyl(oxo)-λ^6-sulfanylidene]amino]-2-methoxy-phenyl]-4-(1H-indol-3-yl)pyrimidin-2-amine]",140,370,170,15,130
"CCOc1cc(N=S(C)(C)=O)ccc1Nc1ncc(Cl)c(-c2c[nH]c3ccccc23)n1 [Example 2, 5-Chloro-N-[4-[[dimethyl(oxo)-λ^6-sulfanylidene]amino]-2-ethoxy-phenyl]-4-(1H-indol-3-yl)pyrimidin-2-amine]",480,1900,430,53,39
"CC(C)COc1cc(N=S(C)(C)=O)ccc1Nc1ncc(Cl)c(-c2c[nH]c3ccccc23)n1 [Example 4, 5-chloro-N-[4-[[dimethyl(oxo)-λ^6-sulfanylidene]amino]-2-isobutoxy-phenyl]-4-(1H-indol-3-yl)pyrimidin-2-amine]",21000,–,–,4100,210
"COc1c(N=S(C)(C)=O)cccc1Nc1ncc(Cl)c(-c2c[nH]c3ccccc23)n1 [Example 5, 5-chloro-N-[3-[[dimethyl(oxo)-λ^6-sulfanylidene]amino]-2-methoxy-phenyl]-4-(1H-indol-3-yl)pyrimidin-2-amine]",3300,14000,4300,420,6200
"COc1ccc(N=S(C)(C)=O)cc1Nc1ncc(Cl)c(-c2c[nH]c3ccccc23)n1 [Example 6, 5-chloro-N-[5-[[dimethyl(oxo)-λ^6-sulfanylidene]amino]-2-methoxy-phenyl]-4-(1H-indol-3-yl)pyrimidin-2-amine]",390,1700,1100,90,2000
"CS(C)(=O)=Nc1cccc(Nc2ncc(Cl)c(-c3c[nH]c4ccccc34)n2)c1 [Example 7, 5-chloro-N-[3-[[dimethyl(oxo)-λ^6-sulfanylidene]amino]phenyl]-4-(1H-indol-3-yl)pyrimidin-2-amine]",21,140,40,4,280
"CS(C)(=O)=Nc1ccc(Nc2cc(-n3ccc4ccccc43)ncn2)cc1 [Example 15, N-[4-[[dimethyl(oxo)-λ^6-sulfanylidene]amino]phenyl]-6-indol-1-yl-pyrimidin-4-amine]",29000,14000,18000,3700,–
"CS(C)(=O)=Nc1ccc(Nc2nccc(-n3ccc4ccccc43)n2)c(N)c1 [Example 18, 4-[[dimethyl(oxo)-λ^6-sulfanylidene]amino]-N1-(4-indol-1-ylpyrimidin-2-yl)benzene-1,2-diamine]",–,21000,20000,12000,–
"C=CC(=O)Nc1cc(N=S(C)(C)=O)ccc1Nc1nccc(-n2ccc3ccccc32)n1 [Example 19, N-[5-[[dimethyl(oxo)-λ^6-sulfanylidene]amino]-2-[(4-indol-1-ylpyrimidin-2-yl)amino]phenyl]prop-2-enamide]",–,–,–,3000,–
"CC(=O)c1cn(-c2nc(Nc3ccc(N=S(C)(C)=O)cc3)ncc2C)c2ccccc12 [Example 21, 1-[1-[2-[4-[[Dimethyl(oxo)-λ^6-sulfanylidene]amino]anilino]-5-methyl-pyrimidin-4-yl]indol-3-yl]ethanone]",–,–,27000,–,–
